Experimental data reported in the NIST ThermoML archive (doi:10.1016/j.jct.2017.07.008).
Where “and” joins values, the source holds several entries; their conditions need not be identical. Equal values may be shown once.

Conditions: for mass density / viscosity / speed of sound / vapor or sublimation pressure: Liquid; for mass density: Vibrating tube method; for surface tension liquid-gas: Drop volume; for viscosity: Capillary tube (Ostwald / Ubbelohde) method; for speed of sound: Frequency=3 MHz, Single path-length method; for vapor or sublimation pressure: Ebulliometric method (Recirculating still)

O=Cc1cccs1 [2-thiophenealdehyde]
Conditions | mass density | speed of sound [m/s] | viscosity [mPa·s]
313.15 K, 65000 kPa | 1238.47 kg/m3 | – | –
315.65 K, 100 kPa | 1199.69 kg/m3 | 1404.1 | 1.528
318.15 K, 100 kPa | 1197.17 kg/m3 and 1197.16 kg/m3 | 1395.9 | 1.473
318.15 K, 2000 kPa | 1198.45 kg/m3 | – | –
318.15 K, 5000 kPa | 1200.45 kg/m3 | – | –
318.15 K, 7000 kPa | 1201.76 kg/m3 | – | –
318.15 K, 10000 kPa | 1203.7 kg/m3 | – | –
318.15 K, 15000 kPa | 1206.86 kg/m3 | – | –
318.15 K, 20000 kPa | 1209.92 kg/m3 | – | –
318.15 K, 25000 kPa | 1212.9 kg/m3 | – | –
318.15 K, 30000 kPa | 1215.8 kg/m3 | – | –
318.15 K, 35000 kPa | 1218.62 kg/m3 | – | –
318.15 K, 40000 kPa | 1221.37 kg/m3 | – | –
318.15 K, 45000 kPa | 1224.05 kg/m3 | – | –
318.15 K, 50000 kPa | 1226.67 kg/m3 | – | –
318.15 K, 55000 kPa | 1229.23 kg/m3 | – | –
318.15 K, 60000 kPa | 1231.73 kg/m3 | – | –
318.15 K, 65000 kPa | 1234.18 kg/m3 | – | –
320.65 K, 100 kPa | 1194.65 kg/m3 | 1387.6 | 1.418
323.15 K, 100 kPa | 1192.12 kg/m3 | 1379.3 | 1.375
323.15 K, 2000 kPa | 1193.44 kg/m3 | – | –
323.15 K, 5000 kPa | 1195.49 kg/m3 | – | –
323.15 K, 7000 kPa | 1196.83 kg/m3 | – | –
323.15 K, 10000 kPa | 1198.82 kg/m3 | – | –
323.15 K, 15000 kPa | 1202.04 kg/m3 | – | –
323.15 K, 20000 kPa | 1205.17 kg/m3 | – | –
323.15 K, 25000 kPa | 1208.22 kg/m3 | – | –
323.15 K, 30000 kPa | 1211.17 kg/m3 | – | –
323.15 K, 35000 kPa | 1214.05 kg/m3 | – | –
323.15 K, 40000 kPa | 1216.86 kg/m3 | – | –
323.15 K, 45000 kPa | 1219.59 kg/m3 | – | –
323.15 K, 50000 kPa | 1222.26 kg/m3 | – | –
323.15 K, 55000 kPa | 1224.86 kg/m3 | – | –
323.15 K, 60000 kPa | 1227.41 kg/m3 | – | –
323.15 K, 65000 kPa | 1229.89 kg/m3 | – | –
325.65 K, 100 kPa | 1189.6 kg/m3 | 1371.1 | 1.325
328.15 K, 100 kPa | 1187.08 kg/m3 and 1187.07 kg/m3 | 1362.8 | 1.275
328.15 K, 2000 kPa | 1188.42 kg/m3 | – | –
328.15 K, 5000 kPa | 1190.52 kg/m3 | – | –
328.15 K, 7000 kPa | 1191.9 kg/m3 | – | –
328.15 K, 10000 kPa | 1193.93 kg/m3 | – | –
328.15 K, 15000 kPa | 1197.23 kg/m3 | – | –
328.15 K, 20000 kPa | 1200.43 kg/m3 | – | –
328.15 K, 25000 kPa | 1203.54 kg/m3 | – | –
328.15 K, 30000 kPa | 1206.56 kg/m3 | – | –
328.15 K, 35000 kPa | 1209.49 kg/m3 | – | –
328.15 K, 40000 kPa | 1212.35 kg/m3 | – | –
328.15 K, 45000 kPa | 1215.13 kg/m3 | – | –
328.15 K, 50000 kPa | 1217.85 kg/m3 | – | –
328.15 K, 55000 kPa | 1220.5 kg/m3 | – | –
328.15 K, 60000 kPa | 1223.09 kg/m3 | – | –
328.15 K, 65000 kPa | 1225.62 kg/m3 | – | –
330.65 K, 100 kPa | 1184.55 kg/m3 | 1354.6 | 1.233
333.15 K, 100 kPa | 1182.02 kg/m3 | 1346.4 | 1.194
333.15 K, 2000 kPa | 1183.41 kg/m3 | – | –
333.15 K, 5000 kPa | 1185.56 kg/m3 | – | –
333.15 K, 7000 kPa | 1186.96 kg/m3 | – | –
333.15 K, 10000 kPa | 1189.04 kg/m3 | – | –
333.15 K, 15000 kPa | 1192.42 kg/m3 | – | –
333.15 K, 20000 kPa | 1195.69 kg/m3 | – | –
333.15 K, 25000 kPa | 1198.86 kg/m3 | – | –
333.15 K, 30000 kPa | 1201.94 kg/m3 | – | –
333.15 K, 35000 kPa | 1204.93 kg/m3 | – | –
333.15 K, 40000 kPa | 1207.85 kg/m3 | – | –
333.15 K, 45000 kPa | 1210.68 kg/m3 | – | –
333.15 K, 50000 kPa | 1213.45 kg/m3 | – | –
333.15 K, 55000 kPa | 1216.14 kg/m3 | – | –
333.15 K, 60000 kPa | 1218.77 kg/m3 | – | –
333.15 K, 65000 kPa | 1221.34 kg/m3 | – | –
335.65 K, 100 kPa | 1179.49 kg/m3 | 1338.2 | 1.155
338.15 K, 100 kPa | 1176.97 kg/m3 | 1330.2 | 1.121
338.15 K, 2000 kPa | 1178.39 kg/m3 | – | –
338.15 K, 5000 kPa | 1180.59 kg/m3 | – | –
338.15 K, 7000 kPa | 1182.03 kg/m3 | – | –
338.15 K, 10000 kPa | 1184.16 kg/m3 | – | –
338.15 K, 15000 kPa | 1187.61 kg/m3 | – | –
338.15 K, 20000 kPa | 1190.94 kg/m3 | – | –
338.15 K, 25000 kPa | 1194.18 kg/m3 | – | –
338.15 K, 30000 kPa | 1197.32 kg/m3 | – | –
338.15 K, 35000 kPa | 1200.37 kg/m3 | – | –
338.15 K, 40000 kPa | 1203.34 kg/m3 | – | –
338.15 K, 45000 kPa | 1206.23 kg/m3 | – | –
338.15 K, 50000 kPa | 1209.04 kg/m3 | – | –
338.15 K, 55000 kPa | 1211.78 kg/m3 | – | –
338.15 K, 60000 kPa | 1214.46 kg/m3 | – | –
338.15 K, 65000 kPa | 1217.07 kg/m3 | – | –

Conditions | surface tension liquid-gas [mN/m] | vapor or sublimation pressure [kPa]
315.65 K | 43.89 | –
318.15 K | 43.6 | –
320.65 K | 43.28 | –
323.15 K | 43.01 | –
325.65 K | 42.68 | –
328.15 K | 42.39 | –
330.65 K | 42.09 | –
333.15 K | 41.76 | –
335.65 K | 41.46 | –
336.42 K | – | 0.66
338.15 K | 41.21 | –
340.7 K | – | 0.85
345.63 K | – | 1.135
349.65 K | – | 1.4
353.7 K | – | 1.725
356.19 K | – | 1.915
359.55 K | – | 2.265
361.67 K | – | 2.55
364.68 K | – | 2.925
366.94 K | – | 3.265
368.98 K | – | 3.6
372.07 K | – | 4.14
374.68 K | – | 4.645
376.79 K | – | 5.065
377.74 K | – | 5.3
379.92 K | – | 5.8
382.69 K | – | 6.5
386.72 K | – | 7.585
389.41 K | – | 8.415
391.94 K | – | 9.285
394.82 K | – | 10.41
399.42 K | – | 12.29
401.02 K | – | 13.11
403 K | – | 14.06
404.9 K | – | 15.05
407.06 K | – | 16.14
408.95 K | – | 17.25
411.16 K | – | 18.6
412.82 K | – | 19.66
413.9 K | – | 20.41
415.91 K | – | 21.8
418.01 K | – | 23.36
420.05 K | – | 24.95
422.07 K | – | 26.6
424.04 K | – | 28.25
426.15 K | – | 30.11
428.14 K | – | 32.01
429.02 K | – | 32.92
430.17 K | – | 34.05
431.54 K | – | 35.47
433.17 K | – | 37.2
